Test results reported in the supplement of paper PMC10307832.

How the values were obtained:
Assay in all cases: relative viability (nuclei count vs DMSO), 5 days (fraction); higher = more cells survive
UMC-11 = tested on: UMC-11
Summary of the method: (§1)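 Five library-drug doses in √10 steps were combined with a fixed anchor-drug dose, or a single drug was given alone, by pin tool to lung cancer cell lines in 1536-well plates the day after seeding. Nuclei were stained and counted after 5 days. Relative viability is the nuclei count in treated wells over that in vehicle wells, taken as the median of duplicate plates.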

SK-LU-1 = tested on: SK-LU-1
Summary of the method: as §1

NCI-H1734 = tested on: NCI-H1734
Summary of the method: as §1

NCI-H2228 = tested on: NCI-H2228
Summary of the method: as §1

HCC-78 = tested on: HCC-78
Summary of the method: as §1

NCI-H1975 = tested on: NCI-H1975
Summary of the method: as §1

NCI-H727 = tested on: NCI-H727
Summary of the method: as §1

NCI-H1355 = tested on: NCI-H1355
Summary of the method: as §1

NCI-H2085 = tested on: NCI-H2085
Summary of the method: as §1

NCI-H2126 = tested on: NCI-H2126
Summary of the method: as §1

PC-14 = tested on: PC-14
Summary of the method: as §1

201T = tested on: 201T
Summary of the method: as §1

NCI-H647 = tested on: NCI-H647
Summary of the method: as §1

NCI-H1395 = tested on: NCI-H1395
Summary of the method: as §1

LU99A = tested on: LU99A
Summary of the method: as §1

HCC-44 = tested on: HCC-44
Summary of the method: as §1

LOU-NH91 = tested on: LOU-NH91
Summary of the method: as §1

HCC-366 = tested on: HCC-366
Summary of the method: as §1

NCI-H2087 = tested on: NCI-H2087
Summary of the method: as §1

SK-MES-1 = tested on: SK-MES-1
Summary of the method: as §1

BEN = tested on: BEN
Summary of the method: as §1

NCI-H322M = tested on: NCI-H322M
Summary of the method: as §1

`C=C1C(=O)O[C@@H](CCCCCCCC)[C@@H]1C(=O)O` [C-75] + CC1(C)CCC(c2ccc(Cl)cc2)=C(CN2CCN(c3ccc(C(=O)NS(=O)(=O)c4ccc(N[C@H](CCN5CCOCC5)CSc5ccccc5)c(S(=O)(=O)C(F)(F)F)c4)cc3)CC2)C1 [Navitoclax] (partner 0.5 µM) gave a relative viability (UMC-11; first compound 0.08 µM) of 0.3, a relative viability (UMC-11; first compound 0.253 µM) of 0.299 and a relative viability (UMC-11; first compound 0.8 µM) of 0.292. It also gave a relative viability (UMC-11; first compound 2.53 µM) of 0.287, a relative viability (UMC-11; first compound 8 µM) of 0.239 and a relative viability (SK-LU-1; first compound 0.08 µM) of 0.932. For the same compound, the relative viability (SK-LU-1; first compound 0.253 µM) was 0.85, the relative viability (SK-LU-1; first compound 0.8 µM) was 0.763 and the relative viability (SK-LU-1; first compound 2.53 µM) was 0.709. It also gave a relative viability (SK-LU-1; first compound 8 µM) of 0.751, a relative viability (NCI-H1734; first compound 0.08 µM) of 0.828 and a relative viability (NCI-H1734; first compound 0.253 µM) of 0.778. For the same compound, the relative viability (NCI-H1734; first compound 0.8 µM) was 0.815, the relative viability (NCI-H1734; first compound 2.53 µM) was 0.629 and the relative viability (NCI-H1734; first compound 8 µM) was 0.754. For the same compound, the relative viability (NCI-H2228; first compound 0.08 µM) was 1.04, the relative viability (NCI-H2228; first compound 0.253 µM) was 1.21 and the relative viability (NCI-H2228; first compound 0.8 µM) was 0.707. For the same compound, the relative viability (NCI-H2228; first compound 2.53 µM) was 0.973, the relative viability (NCI-H2228; first compound 8 µM) was 0.75 and the relative viability (HCC-78; first compound 0.08 µM) was 0.791. The relative viability (HCC-78; first compound 0.253 µM) was 0.834, the relative viability (HCC-78; first compound 0.8 µM) was 0.75 and the relative viability (HCC-78; first compound 2.53 µM) was 0.708. The relative viability (HCC-78; first compound 8 µM) was 0.864, the relative viability (NCI-H1975; first compound 0.08 µM) was 0.983 and the relative viability (NCI-H1975; first compound 0.253 µM) was 1.1. For the same compound, the relative viability (NCI-H1975; first compound 0.8 µM) was 1.12, the relative viability (NCI-H1975; first compound 2.53 µM) was 1.1 and the relative viability (NCI-H1975; first compound 8 µM) was 1.14. The relative viability (NCI-H727; first compound 0.08 µM) was 0.464, the relative viability (NCI-H727; first compound 0.253 µM) was 0.62 and the relative viability (NCI-H727; first compound 0.8 µM) was 0.436. The relative viability (NCI-H727; first compound 2.53 µM) was 0.377, the relative viability (NCI-H727; first compound 8 µM) was 0.319 and the relative viability (NCI-H1355; first compound 0.08 µM) was 0.951. It also gave a relative viability (NCI-H1355; first compound 0.253 µM) of 0.894, a relative viability (NCI-H1355; first compound 0.8 µM) of 0.867 and a relative viability (NCI-H1355; first compound 2.53 µM) of 0.952. It also gave a relative viability (NCI-H1355; first compound 8 µM) of 0.956, a relative viability (NCI-H2085; first compound 0.08 µM) of 1.15 and a relative viability (NCI-H2085; first compound 0.253 µM) of 1.2. For the same compound, the relative viability (NCI-H2085; first compound 0.8 µM) was 1.07, the relative viability (NCI-H2085; first compound 2.53 µM) was 1.11 and the relative viability (NCI-H2085; first compound 8 µM) was 1.08. For the same compound, the relative viability (NCI-H2126; first compound 0.08 µM) was 0.869, the relative viability (NCI-H2126; first compound 0.253 µM) was 0.902 and the relative viability (NCI-H2126; first compound 0.8 µM) was 0.871. The relative viability (NCI-H2126; first compound 2.53 µM) was 0.718, the relative viability (NCI-H2126; first compound 8 µM) was 0.818 and the relative viability (PC-14; first compound 0.08 µM) was 1.01. The relative viability (PC-14; first compound 0.253 µM) was 1, the relative viability (PC-14; first compound 0.8 µM) was 0.977 and the relative viability (PC-14; first compound 2.53 µM) was 0.911. The relative viability (PC-14; first compound 8 µM) was 0.978, the relative viability (201T; first compound 0.08 µM) was 1.23 and the relative viability (201T; first compound 0.253 µM) was 1.27. The relative viability (201T; first compound 0.8 µM) was 1.23, the relative viability (201T; first compound 2.53 µM) was 1.17 and the relative viability (201T; first compound 8 µM) was 1.21. The relative viability (NCI-H647; first compound 0.08 µM) was 1.12, the relative viability (NCI-H647; first compound 0.253 µM) was 1.05 and the relative viability (NCI-H647; first compound 2.53 µM) was 0.875. The relative viability (NCI-H647; first compound 8 µM) was 0.857, the relative viability (NCI-H1395; first compound 0.08 µM) was 1.13 and the relative viability (NCI-H1395; first compound 0.253 µM) was 1.24. The relative viability (NCI-H1395; first compound 0.8 µM) was 0.989, the relative viability (NCI-H1395; first compound 2.53 µM) was 0.813 and the relative viability (NCI-H1395; first compound 8 µM) was 1.26. For the same compound, the relative viability (LU99A; first compound 0.08 µM) was 0.795, the relative viability (LU99A; first compound 0.253 µM) was 0.845 and the relative viability (LU99A; first compound 0.8 µM) was 0.695. For the same compound, the relative viability (LU99A; first compound 2.53 µM) was 0.588, the relative viability (LU99A; first compound 8 µM) was 0.594 and the relative viability (HCC-44; first compound 0.08 µM) was 0.972. The relative viability (HCC-44; first compound 0.253 µM) was 0.959, the relative viability (HCC-44; first compound 0.8 µM) was 0.905 and the relative viability (HCC-44; first compound 2.53 µM) was 0.791. It also gave a relative viability (HCC-44; first compound 8 µM) of 1.02, a relative viability (LOU-NH91; first compound 0.08 µM) of 0.756 and a relative viability (LOU-NH91; first compound 0.253 µM) of 0.679. For the same compound, the relative viability (LOU-NH91; first compound 0.8 µM) was 0.643, the relative viability (LOU-NH91; first compound 2.53 µM) was 0.55 and the relative viability (LOU-NH91; first compound 8 µM) was 0.776. For the same compound, the relative viability (HCC-366; first compound 0.08 µM) was 1.03, the relative viability (HCC-366; first compound 0.253 µM) was 1.1 and the relative viability (HCC-366; first compound 0.8 µM) was 0.943. The relative viability (HCC-366; first compound 8 µM) was 0.833, the relative viability (NCI-H2087; first compound 0.08 µM) was 1.02 and the relative viability (NCI-H2087; first compound 0.253 µM) was 1.05. It also gave a relative viability (NCI-H2087; first compound 0.8 µM) of 0.934, a relative viability (NCI-H2087; first compound 2.53 µM) of 0.927 and a relative viability (NCI-H2087; first compound 8 µM) of 0.87. It also gave a relative viability (SK-MES-1; first compound 0.08 µM) of 1.31, a relative viability (SK-MES-1; first compound 0.253 µM) of 1.23 and a relative viability (SK-MES-1; first compound 0.8 µM) of 1.16. For the same compound, the relative viability (SK-MES-1; first compound 2.53 µM) was 1.21, the relative viability (SK-MES-1; first compound 8 µM) was 1.17 and the relative viability (BEN; first compound 0.08 µM) was 0.0695. It also gave a relative viability (BEN; first compound 0.253 µM) of 0.0673, a relative viability (BEN; first compound 0.8 µM) of 0.0656 and a relative viability (BEN; first compound 2.53 µM) of 0.0589. It also gave a relative viability (BEN; first compound 8 µM) of 0.0596, a relative viability (NCI-H322M; first compound 0.08 µM) of 1.18 and a relative viability (NCI-H322M; first compound 0.253 µM) of 1.54. It also gave a relative viability (NCI-H322M; first compound 0.8 µM) of 1.28, a relative viability (NCI-H322M; first compound 2.53 µM) of 1.12 and a relative viability (NCI-H322M; first compound 8 µM) of 1.29.
